Patent US8486964B2, “Fused pyrrolidino-cyclopropane derivatives as selective 11-beta-hydroxysteroid dehydrogenase type 1 inhibitors” (Merck Patent GmbH, priority 2009, dated 2013)

Legend:
Format in all cases: biochemical
[1] = target: rat 11-β-HSD-1 (Rattus norvegicus (Rat), UniProt P16232); assay: Inhibition of 11-β-HSD-1 enzyme assay (HTRF cortisol), rat liver microsome fractions; settings: cortisone/NADPH 200 nM/200 μM, 150 minutes at 37° C.
Method: (§1) Human recombinant 11-beta-hydroxysteroid dehydrogenase type 1 (11-β-HSD-1) enzyme was expressed in E. coli. Rat and mice liver microsome fractions were purchased from TEBU.
(§2) The 11-β-HSD-1 enzyme assay was carried out in 96 well microtiter plates in a total volume of 100 μl containing 30 mM Hepes buffer, pH 7.4 with 1 mM EDTA, substrate mixture cortisone/NADPH (200 nM/200 μM), G-6-P (1 mM) and inhibitors in serial dilutions. Reactions were initiated by addition of 10 μl 11-β-HSD-1 (3 μg) from E. coli, either as microsome fractions from rat and mice liver (2.5 μg). Following mixing, the plates were shaken for 150 minutes at 37° C. The reactions were terminated with 10 μl Acid-18beta glycyrrhetinic stop solution. Determinations of cortisol levels in 11-β-HSD-1 preparations were monitored by HTRF (HTRF cortisol assay from Cis bio international).

[2] = target: mouse 11-β-HSD-1 (Mus musculus (Mouse), UniProt P50172); assay: Inhibition of 11-β-HSD-1 enzyme assay (HTRF cortisol), mice liver microsome fractions; settings: cortisone/NADPH 200 nM/200 μM, 150 minutes at 37° C.
Method: as §1, §2

[3] = target: human 11-β-HSD-1 (Homo sapiens (Human), UniProt P28845); assay: Inhibition of 11-β-HSD-1 enzyme assay (HTRF cortisol), human recombinant enzyme; settings: human recombinant enzyme expressed in E. coli; cortisone/NADPH 200 nM/200 μM; 150 minutes at 37° C.
Method: as §1, §2

Chain of human 11-β-HSD-1 (P28845 whole entry): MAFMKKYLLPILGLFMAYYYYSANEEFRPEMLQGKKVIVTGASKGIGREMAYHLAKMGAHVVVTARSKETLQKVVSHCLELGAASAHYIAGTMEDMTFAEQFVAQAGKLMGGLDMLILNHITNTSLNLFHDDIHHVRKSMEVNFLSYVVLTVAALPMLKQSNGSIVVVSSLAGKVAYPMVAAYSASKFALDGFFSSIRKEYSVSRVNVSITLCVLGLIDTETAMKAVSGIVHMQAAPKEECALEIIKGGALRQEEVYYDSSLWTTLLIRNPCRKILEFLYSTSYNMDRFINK
Chain of mouse 11-β-HSD-1 (P50172 whole entry): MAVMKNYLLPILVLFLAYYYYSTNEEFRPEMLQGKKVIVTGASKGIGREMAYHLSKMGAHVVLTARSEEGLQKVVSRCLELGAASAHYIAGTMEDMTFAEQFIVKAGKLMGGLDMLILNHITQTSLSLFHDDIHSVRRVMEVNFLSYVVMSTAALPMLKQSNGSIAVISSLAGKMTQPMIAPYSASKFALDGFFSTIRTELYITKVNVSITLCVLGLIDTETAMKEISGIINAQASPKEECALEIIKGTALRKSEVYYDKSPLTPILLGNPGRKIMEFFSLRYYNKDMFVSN
Chain of rat 11-β-HSD-1 (P16232 whole entry): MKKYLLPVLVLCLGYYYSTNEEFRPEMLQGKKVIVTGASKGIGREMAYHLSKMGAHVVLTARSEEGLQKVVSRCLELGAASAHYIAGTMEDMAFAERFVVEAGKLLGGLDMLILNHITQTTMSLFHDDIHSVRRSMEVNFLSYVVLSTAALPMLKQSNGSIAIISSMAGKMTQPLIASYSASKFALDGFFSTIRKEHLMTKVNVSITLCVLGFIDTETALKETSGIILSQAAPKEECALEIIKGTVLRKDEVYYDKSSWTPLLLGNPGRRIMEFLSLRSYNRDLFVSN

IC50 [1]: 1290 nM | IC50 [2]: 1540 nM | IC50 [3]: 22 nM
Structure (SMILES): O=C(N1CCC2(c3c[nH]c4ncccc34)CC12)C1(c2ccc(Cl)cc2)CC1 (stereo not drawn) [Compound 2, 3-(2-{[1-(4-chlorophenyl)cyclopropyl]carbonyl}-2-azabicyclo[3.1.0]hex-5-yl)-1H-pyrrolo[2,3-b]pyridine]
